Experimental data: patent publication US20220340875A1, “METHODS OF CULTURING AND/OR EXPANDING STEM CELLS AND/OR LINEAGE COMMITTED PROGENITOR CELLS USING AMIDO COMPOUNDS” (IDEAYA BIOSCIENCES, INC., priority 2018, published 2022)

Target: T1, hAhR (Homo sapiens, UniProt P35869)
T1 construct: Stably integrated DRE-luciferase cell lines were generated by transducing the both cell lines with Cignal XRE luciferase reporter (Qiagen) lentiviral particles; endogenous in cells
T1 sequence (P35869 11-848): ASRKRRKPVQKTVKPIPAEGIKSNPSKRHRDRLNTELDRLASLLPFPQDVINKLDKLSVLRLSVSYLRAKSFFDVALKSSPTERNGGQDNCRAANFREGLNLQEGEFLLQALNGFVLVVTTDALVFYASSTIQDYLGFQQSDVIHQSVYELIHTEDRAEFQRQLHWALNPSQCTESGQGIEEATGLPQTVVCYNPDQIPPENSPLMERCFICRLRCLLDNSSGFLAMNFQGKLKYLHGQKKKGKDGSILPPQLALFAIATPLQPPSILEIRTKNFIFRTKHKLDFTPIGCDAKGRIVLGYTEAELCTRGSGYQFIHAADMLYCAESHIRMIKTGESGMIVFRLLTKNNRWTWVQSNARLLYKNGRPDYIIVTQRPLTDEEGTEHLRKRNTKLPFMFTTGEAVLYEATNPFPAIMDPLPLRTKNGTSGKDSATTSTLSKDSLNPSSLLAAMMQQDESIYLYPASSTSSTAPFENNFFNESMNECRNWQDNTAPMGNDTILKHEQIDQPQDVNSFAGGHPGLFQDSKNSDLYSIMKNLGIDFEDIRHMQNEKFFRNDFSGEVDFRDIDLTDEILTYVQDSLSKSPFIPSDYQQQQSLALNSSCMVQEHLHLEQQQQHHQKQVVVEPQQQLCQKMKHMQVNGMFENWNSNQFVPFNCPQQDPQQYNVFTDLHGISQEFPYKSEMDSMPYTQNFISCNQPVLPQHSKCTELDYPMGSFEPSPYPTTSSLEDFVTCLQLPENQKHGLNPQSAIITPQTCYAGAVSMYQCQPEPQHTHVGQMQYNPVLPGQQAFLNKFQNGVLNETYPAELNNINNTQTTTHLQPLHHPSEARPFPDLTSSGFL
Assay: AhR DRE-luciferase reporter transcriptional assay, antagonist mode (TCDD-induced)
Assay type: cell-based
Settings: HEPG2 DRE-Luc cells, 3 nM TCDD, 24 hour incubation, relative IC50
Procedure: HEPG2 and HEPA1C1C7 cells were maintained in MEM and αMEM without nucleosides supplemented with 10% heat inactivated FBS respectively. Stably integrated DRE-luciferase cell lines were generated by transducing the both cell lines with Cignal XRE luciferase reporter (Qiagen) lentiviral particles according to the manufacturer protocol. For both cell lines stably integrated reporter cell lines were selected for the presence of 2 µg/mL puromycin. Following selection of stably integrated cell line pools, clonal cell lines were isolated by limiting dilution in 96-well plates. Transcriptional assays were performed by seeding 100 μL of cells at a density of 250,000 or 100,000 cells/mL, for HEPG2 and HEPA1C1C7 DRE-Luc cells respectively, into 96-well cell culture plates in OptiMEM supplemented with 0.5% heat inactivated FBS and allowed to attach overnight. For modulator assays, the compounds were added in a semi-log dose response using a D300e Digital Dispenser (Tecan) followed normalization with vehicle (DMSO). Immediately following compound addition 10 μL of 2,3,7,8-Tetrachlorodibenzo-p-dioxin (TCDD) was added to the cells to a final concentration of 3 nM or 0.3 nM for the HEPG2 and HEPA1C1C7 DRE-Luc cells respectively. Following 24 hour incubation the medium was removed and the cells were lysed in 25 μL of Reporter Lysis Buffer (Promega). Firefly luciferase activity was measured immediately following the addition of 50 μL Luciferase Assay Reagent (Promega). The percent maximal activity for each point was determined using the following equasion: (RLUsample-RLUvehicle−TCDD)/(RLUvehicle+TCDD RLUvehicle−TCDD)*100. The relative IC50, defined as the compound concentration required to reduce the TCDD induced response between the top and bottom plateau of each individual dose response curve by half, for each compound was determined using Prism 7 (GraphPad Software).

Row | IC50 [nM] | Compound
1 | 200 to 500 | Cc1cc(-c2ncc3cc(C(F)(F)F)ccc3n2)ccc1N(C)C(=O)c1ncccc1C [Example 118, N,3-dimethyl-N-(2-methyl-4-(6-(trifluoromethyl)quinazolin-2-yl)phenyl)picolinamide]
2 | 200 to 500 | Cc1cc(-c2nc3cc(C(F)(F)F)ccc3s2)ccc1NC(=O)c1ccnn1C [Example 100, 1-methyl-N-(2-methyl-4-(5-(trifluoromethyl)benzo[d]thiazol-2-yl)phenyl)-1H-pyrazole-5-carboxamide]
3 | < 200 | Cc1cc(-c2ncc3cc(C(F)(F)F)ccc3n2)ccc1N(C)C(=O)c1ccnc(C(N)=O)c1 [Example 152, N4-methyl-N4-(2-methyl-4-(6-(trifluoromethyl)quinazolin-2-yl)phenyl)pyridine-2,4-dicarboxamide]
4 | < 200 | COc1cc(C(=O)Nc2ccc(-c3ncc4cc(C(F)(F)F)ccc4n3)cc2C)ccn1 [Example 142, 2-methoxy-N-(2-methyl-4-(6-(trifluoromethyl)quinazolin-2-yl)phenyl)isonicotinamide]
5 | 500 to 1000 | Cn1nccc1C(=O)Nc1ccc(-c2ccc3cc(F)ccc3n2)cc1F [Example 066, N-(2-fluoro-4-(6-fluoroquinolin-2-yl)phenyl)-1-methyl-1H-pyrazole-5-carboxamide]
6 | 1000 to 10000 | Cc1cc(-c2ccc3cc(C(F)(F)F)ccc3n2)ccc1NC(=O)c1ccn[nH]1 [Example 204, N-[2-methyl-4-[6-(trifluoromethyl)quinolin-2-yl]phenyl]-1H-pyrazole-5-carboxamide]
7 | 200 to 500 | Cc1cc(-c2ccc3cc(N4CCOCC4)ccc3n2)ccc1NC(=O)c1ccnn1C [Example 071, 1-methyl-N-(2-methyl-4-(6-morpholinoquinolin-2-yl)phenyl)-1H-pyrazole-5-carboxamide]
8 | 1000 to 10000 | Cc1c(-c2ccc3cc(C(F)(F)F)ccc3n2)ccc(NC(=O)c2ccnn2C)c1F [Example 005, N-(2-fluoro-3-methyl-4-(6-(trifluoromethyl)quinolin-2-yl)phenyl)-1-methyl-1H-pyrazole-5-carboxamide]
9 | < 200 | Cc1cc(-c2ncc3cc(C(F)(F)F)ccc3n2)ccc1NC(=O)c1cn(C)nc1C [Example 219, 1,3-dimethyl-N-(2-methyl-4-(6-(trifluoromethyl)quinazolin-2-yl)phenyl)-1H-pyrazole-4-carboxamide]
10 | 1000 to 10000 | Cc1cc(-c2ccc3cc(C(N)=O)ccc3n2)ccc1NC(=O)c1ccnn1C [Example 074, 2-(3-methyl-4-(1-methyl-1H-pyrazole-5-carboxamido)phenyl)quinoline-6-carboxamide]
11 | < 200 | CN(C(=O)c1ccnn1C)c1ccc(-c2ncc3cc(C(F)(F)F)ccc3n2)cc1 [Example 218, N,1-dimethyl-N-(4-(6-(trifluoromethyl)quinazolin-2-yl)phenyl)-1H-pyrazole-5-carboxamide]
12 | 1000 to 10000 | Cc1cc(-c2ccc3cc(-c4nnn[nH]4)ccc3n2)ccc1NC(=O)c1ccnn1C [Example 063, N-(4-(6-(1H-tetrazol-5-yl)quinolin-2-yl)-2-methylphenyl)-1-methyl-1H-pyrazole-5-carboxamide]
13 | 200 to 500 | Cc1cc(-c2ccc3cc(Br)ccc3n2)ccc1NC(=O)c1ccnn1C [Example 064, N-(4-(6-bromoquinolin-2-yl)-2-methylphenyl)-1-methyl-1H-pyrazole-5-carboxamide]
14 | 500 to 1000 | Cc1cc(-c2ncc3cc(C(F)(F)F)ccc3n2)ccc1NC(=O)c1ncccc1C [Example 117, 3-methyl-N-(2-methyl-4-(6-(trifluoromethyl)quinazolin-2-yl)phenyl)picolinamide]
15 | < 200 | Cc1cc(C(=O)Nc2ccc(-c3ncc4nc(OC(F)(F)F)cc(C)c4n3)cc2C)ccn1 [Example 160, 2-methyl-N-(2-methyl-4-(8-methyl-6-(trifluoromethoxy)pyrido[3,2-d]-pyrimidin-2-yl)phenyl)isonicotinamide]
16 | < 200 | Cc1cc(-c2ncc3nc(C(F)(F)F)cc(C)c3n2)ccc1N(C)C(=O)c1cc(C(N)=O)nn1CCO [Example 200, 1-(2-hydroxyethyl)-N5-methyl-N5-(2-methyl-4-(8-methyl-6-(trifluoromethyl)pyrido[3,2-d]pyrimidin-2-yl)phenyl)-1H-pyrazole-3,5-dicarboxamide]
17 | 200 to 500 | Cc1cc(-c2ccc3ccc(F)cc3n2)ccc1NC(=O)c1ccnn1C [Example 019, N-(4-(7-fluoroquinolin-2-yl)-2-methylphenyl)-1-methyl-1H-pyrazole-5-carboxamide]
18 | < 200 | Cc1cc(-c2ncc3nc(C(F)(F)F)ccc3n2)ccc1NC(=O)c1ccnn1C [Example 135, 1-methyl-N-(2-methyl-4-(6-(trifluoromethyl)pyrido[3,2-d]pyrimidin-2-yl)phenyl)-1H-pyrazole-5-carboxamide]
19 | 1000 to 10000 | Cn1nccc1C(=O)Nc1ccc(-c2ccc3cc(F)ccc3n2)cc1OC(F)(F)F [Example 047, N-(4-(6-fluoroquinolin-2-yl)-2-(trifluoromethoxy)phenyl)-1-methyl-1H-pyrazole-5-carboxamide]
20 | 1000 to 10000 | Cc1cc(-c2ncc3cc(C(F)(F)F)ccc3n2)ccc1N(C)C(=O)c1cnn[nH]1 [Example 146, N-methyl-N-(2-methyl-4-(6-(trifluoromethyl)quinazolin-2-yl)phenyl)-1H-1,2,3-triazole-5-carboxamide]
21 | < 200 | COc1cnccc1C(=O)N(C)c1ccc(-c2ncc3nc(C(F)(F)F)cc(C)c3n2)cc1C [Example 183, 3-methoxy-N-methyl-N-(2-methyl-4-(8-methyl-6-(trifluoromethyl)-pyrido[3,2-d]pyrimidin-2-yl)phenyl)isonicotinamide]
22 | 1000 to 10000 | Cc1cc(-c2ccc3cc(N)ccc3n2)ccc1NC(=O)c1ccnn1C [Example 075, N-(4-(6-aminoquinolin-2-yl)-2-methylphenyl)-1-methyl-1H-pyrazole-5-carboxamide]
23 | 200 to 500 | Cc1cc(-c2ccc3cc(F)cc(Cl)c3n2)ccc1NC(=O)c1ccnn1C [Example 049, N-(4-(8-chloro-6-fluoroquinolin-2-yl)-2-methylphenyl)-1-methyl-1H-pyrazole-5-carboxamide]
24 | < 200 | Cc1cc(-c2ccc3cc(C(F)(F)F)ccc3n2)cc(F)c1NC(=O)c1ccnn1C [Example 008, N-(2-fluoro-6-methyl-4-(6-(trifluoromethyl)quinolin-2-yl)phenyl)-1-methyl-1H-pyrazole-5-carboxamide]
25 | 500 to 1000 | Cc1cc(NC(=O)c2ccnn2C)ccc1-c1ccc2cc(F)ccc2n1 [Example 050, N-(4-(6-fluoroquinolin-2-yl)-3-methylphenyl)-1-methyl-1H-pyrazole-5-carboxamide]
26 | 500 to 1000 | Cc1cc(-c2ccc3cc(F)ccc3n2)ccc1NC(=O)c1ccccn1 [Example 026, N-(4-(6-fluoroquinolin-2-yl)-2-methylphenyl)picolinamide]
27 | < 200 | Cc1cc(-c2ccc3nc(C(F)(F)F)cc(C)c3n2)ccc1NC(=O)c1ccnn1C [Example 105, 1-methyl-N-(2-methyl-4-(8-methyl-6-(trifluoromethyl)-1,5-naphthyridin-2-yl)phenyl)-1H-pyrazole-5-carboxamide]
28 | < 200 | CCN(C(=O)c1ccnn1C)c1ccc(-c2ccc3cc(C(F)(F)F)ccc3n2)cc1C [Example 004, N-Ethyl-1-methyl-N-(2-methyl-4-(6-(trifluoromethyl)quinolin-2-yl)phenyl)-1H-pyrazole-5-carboxamide]
